Results on 29 compounds are retold here after ChEMBL document CHEMBL1132981 (J Med Chem, 2000).

Assay [1] deals with Adenosine receptor A2a (Rattus norvegicus, UniProt P30543). Description: biochemical.
Description: Antagonist activity against adenosine A2A receptor in rat striatal membrane in presence of [3H]CGS-21680 radioligand.
Assay [2] addresses Adenosine receptors; A1 & A2b (Homo sapiens) (UniProt P30542+P29275). Description: Selectivity ratio of hA1 to hA2B. Format: protein assay.
Assay [3] addresses Adenosine receptors; A2b & A3 (Homo sapiens) (UniProt P29275+P0DMS8). Description: Selectivity ratio of hA3 to hA2B. Type of assay: protein assay.
In assay [4] the target is T1, Adenosine receptor A2b (Homo sapiens, UniProt P29275).
T1 sequence (P29275 whole entry): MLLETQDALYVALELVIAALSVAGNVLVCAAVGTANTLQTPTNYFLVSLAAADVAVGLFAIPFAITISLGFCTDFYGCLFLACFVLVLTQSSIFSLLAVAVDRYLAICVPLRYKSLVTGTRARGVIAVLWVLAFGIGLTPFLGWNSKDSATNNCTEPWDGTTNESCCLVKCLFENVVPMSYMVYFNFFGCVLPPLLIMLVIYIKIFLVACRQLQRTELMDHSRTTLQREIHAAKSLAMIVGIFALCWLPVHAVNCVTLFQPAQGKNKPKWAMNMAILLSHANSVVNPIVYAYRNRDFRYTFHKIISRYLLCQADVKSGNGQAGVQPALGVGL
Description: Antagonist activity against human A2B adenosine receptor expressed in HEK293 cells uisng [3H]ZM-241385 or [125I]-IABOPX

In assay [5] the target is T2, Adenosine receptor A1 (Rattus norvegicus, UniProt P25099).
T2 sequence (P25099 whole entry): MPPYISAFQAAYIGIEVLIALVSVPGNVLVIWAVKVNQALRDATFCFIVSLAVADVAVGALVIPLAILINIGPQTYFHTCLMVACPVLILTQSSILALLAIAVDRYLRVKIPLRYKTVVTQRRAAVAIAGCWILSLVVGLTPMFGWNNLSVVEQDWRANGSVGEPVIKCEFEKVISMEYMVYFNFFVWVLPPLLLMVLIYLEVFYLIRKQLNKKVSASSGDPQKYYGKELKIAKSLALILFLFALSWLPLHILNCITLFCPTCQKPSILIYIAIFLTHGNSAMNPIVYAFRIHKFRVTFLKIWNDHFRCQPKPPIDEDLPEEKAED
Description: biochemical.
Description: Antagonist activity against adenosine A1 receptor in rat brain membrane in presence of [3H]R-PIA radioligand.

In assay [6] the target is Adenosine receptor A2a (Rattus norvegicus) (UniProt P30543). Nature of the assay: Antagonist activity against adenosine A2A receptor in rat striatal membrane using [3H]CGS-21680. Format: functional, cell membranes. The following applies: Striatum, concentration not given here.
Adenosine receptor A2a (Rattus norvegicus), sequence (P30543 whole entry): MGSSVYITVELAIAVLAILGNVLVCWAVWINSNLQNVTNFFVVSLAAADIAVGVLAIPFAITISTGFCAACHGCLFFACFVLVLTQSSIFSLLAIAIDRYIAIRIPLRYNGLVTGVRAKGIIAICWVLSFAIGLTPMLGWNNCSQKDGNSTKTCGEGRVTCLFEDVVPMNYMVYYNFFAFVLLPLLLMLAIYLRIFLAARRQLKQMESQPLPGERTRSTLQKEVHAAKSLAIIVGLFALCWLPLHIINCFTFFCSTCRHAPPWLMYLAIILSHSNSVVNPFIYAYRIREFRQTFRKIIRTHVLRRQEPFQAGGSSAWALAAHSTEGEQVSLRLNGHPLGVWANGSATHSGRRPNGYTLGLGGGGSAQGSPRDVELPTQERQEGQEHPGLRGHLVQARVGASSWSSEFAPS
For assay [7], the target named is T3, Adenosine receptor A3 (Homo sapiens, UniProt P0DMS8).
T3 sequence (P0DMS8 whole entry): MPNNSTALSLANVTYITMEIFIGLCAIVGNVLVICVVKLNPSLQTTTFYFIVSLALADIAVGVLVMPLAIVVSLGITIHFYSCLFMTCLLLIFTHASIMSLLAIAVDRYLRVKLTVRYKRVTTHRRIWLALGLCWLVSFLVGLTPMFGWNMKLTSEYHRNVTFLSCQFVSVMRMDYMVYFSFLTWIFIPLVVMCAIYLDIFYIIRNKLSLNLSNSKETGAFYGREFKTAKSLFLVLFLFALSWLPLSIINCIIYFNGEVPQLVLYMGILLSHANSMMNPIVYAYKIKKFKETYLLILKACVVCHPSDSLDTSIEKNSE
Description: biochemical.
Description: Antagonist activity against human adenosine A3 receptor expressed in HEK cells in presence of [125]IAB-MECA or [125I]IABA radioligand.

In assay [8] the target is Adenosine receptor A2a (Homo sapiens, UniProt P29274). Description: biochemical.
Adenosine receptor A2a (Homo sapiens, UniProt P29274), sequence (P29274 whole entry): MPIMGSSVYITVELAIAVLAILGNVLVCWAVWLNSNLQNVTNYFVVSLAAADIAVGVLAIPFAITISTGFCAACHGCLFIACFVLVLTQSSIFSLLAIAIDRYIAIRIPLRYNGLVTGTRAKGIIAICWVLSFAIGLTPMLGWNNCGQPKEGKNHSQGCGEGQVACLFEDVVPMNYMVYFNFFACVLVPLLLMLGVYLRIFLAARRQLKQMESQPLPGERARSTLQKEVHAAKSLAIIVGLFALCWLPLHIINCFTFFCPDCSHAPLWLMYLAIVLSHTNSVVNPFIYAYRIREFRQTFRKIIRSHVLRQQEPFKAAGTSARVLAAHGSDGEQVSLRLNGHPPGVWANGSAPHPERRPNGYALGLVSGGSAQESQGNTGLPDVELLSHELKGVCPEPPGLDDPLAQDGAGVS
Description: Antagonist activity against recombinant human adenosine A2A receptor expressed in HEK293 cells in presence of [125I]iodo-ZM-241385 radioligand.
Assay [9] addresses T4, Adenosine receptor A1 (Homo sapiens, UniProt P30542).
T4 sequence (P30542 whole entry): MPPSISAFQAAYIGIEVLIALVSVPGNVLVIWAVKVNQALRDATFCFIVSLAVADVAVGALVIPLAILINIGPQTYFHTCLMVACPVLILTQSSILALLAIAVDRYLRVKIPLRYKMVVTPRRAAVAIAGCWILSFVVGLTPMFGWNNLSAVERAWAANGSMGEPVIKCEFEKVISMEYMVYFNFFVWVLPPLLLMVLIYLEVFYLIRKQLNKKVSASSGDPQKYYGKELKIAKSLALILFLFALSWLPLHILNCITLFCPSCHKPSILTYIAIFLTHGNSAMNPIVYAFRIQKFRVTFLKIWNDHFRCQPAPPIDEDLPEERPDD
Description: biochemical.
Description: Antagonist activity against recombinant human adenosine A1 receptor expressed in HEK293 cells in presence of [125I]IABA radioligand.

The target in assay [10] is Adenosine receptor A2a (Rattus norvegicus) (UniProt P30543). Nature of the assay: Antagonist activity against adenosine A2A receptor in rat striatal membrane using [3H]CGS-21680 at 10e-5 M. Type of assay: functional, cell membranes. The settings on record: Striatum.
The target of assay [11] is T5, Adenosine receptor A2b (Homo sapiens) (UniProt P29275).
T5 sequence (whole entry): T1 sequence (P29275 whole entry)
Type of assay: functional, cell-based. The following applies: HEK293, 10e-5 M.

The target in assay [12] is T6, Adenosine receptor A1 (Rattus norvegicus) (UniProt P25099).
T6 sequence (whole entry): T2 sequence (P25099 whole entry)
Description: Antagonist activity against A1 adenosine receptor in rat brain membrane using [3H]-R-PIA at 10e-5 M. Type of assay: functional, cell membranes.

Assay [13] addresses T7, Adenosine receptor A3 (Rattus norvegicus, UniProt P28647).
T7 sequence (P28647 whole entry): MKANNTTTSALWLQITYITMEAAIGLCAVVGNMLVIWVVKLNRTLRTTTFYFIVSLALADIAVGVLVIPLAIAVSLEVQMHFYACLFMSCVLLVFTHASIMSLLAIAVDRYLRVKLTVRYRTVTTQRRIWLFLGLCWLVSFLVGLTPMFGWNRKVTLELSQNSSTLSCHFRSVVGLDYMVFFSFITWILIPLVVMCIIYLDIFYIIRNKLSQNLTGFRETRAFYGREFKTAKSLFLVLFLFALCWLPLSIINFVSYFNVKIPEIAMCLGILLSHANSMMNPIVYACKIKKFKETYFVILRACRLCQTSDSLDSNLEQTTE
Type of assay: functional.

For assay [14], the target named is T8, Adenosine receptor A3 (Homo sapiens) (UniProt P0DMS8).
T8 sequence (whole entry): T3 sequence (P0DMS8 whole entry)
Format: functional, cell-based. The following applies: HEK293, 10e-6 M.

In assay [15] the target is T6, Adenosine receptor A1 (Rattus norvegicus). Nature of the assay: Antagonist activity against adenosine A1 receptor in rat brain membrane using [3H]R-PIA at 10e-5 M. Type of assay: functional, cell membranes.

Adenosine receptor A2a (Rattus norvegicus, UniProt P30543), sequence (P30543 whole entry): as the sequence (P30543 whole entry) above

Regarding `O=C(O)/C=C/c1ccc(-c2nc3c(=O)n(CC4CCCCC4)c(=O)n(CC4CCCCC4)c3[nH]2)cc1`, the Ki in assay [1] was below 10 nM. Also, the results for the Ratio in [2] and in assay [3] were 25 and 4.6, respectively.
For the compound `CCCn1c(=O)c2nc(-c3ccc(OCC(=O)Nc4cccc(C(C)=O)c4)cc3)[nH]c2n(CCC)c1=O`, the Ratio was 48 in assay [2] and 72 in assay [3].
With `CCn1c(=O)c2[nH]c(-c3ccc(OCC(=O)Nc4ccc(CC(=O)NCCN)cc4)cc3)nc2n(CC)c1=O`, the inhibitory constant (Ki) in [1] was determined as 1370 nM; in assay [4], 15.2 nM; in [5], 65 nM.
For `CCCn1c(=O)c2nc(-c3ccc(OCC(=O)N(Cc4ccccc4)Cc4ccccc4)cc3)[nH]c2n(CCC)c1=O`, the Ratio in assay [2] is 70; in assay [3], 29.
Taken in the same sequence, the figures for `CCCn1c(=O)c2nc(-c3ccc(OCC(=O)Nc4ccc(Cl)cc4)cc3)[nH]c2n(CCC)c1=O` were 20 and 760.
Take `CCCn1c(=O)c2nc(-c3ccc(OCC(=O)NC(c4ccccc4)c4ccccc4)cc3)[nH]c2n(CCC)c1=O`: in assay [6], the inhibition is 20%.
`CCCn1c(=O)c2nc(-c3ccc(OCC(=O)Nc4ccc(C(=O)O)cc4)cc3)[nH]c2n(CCC)c1=O`: the Ratio was 10 in [2] and above 300 in assay [3].
In the same order, the values of `CCCn1c(=O)c2nc(-c3ccc(OCC(=O)Nc4ccc(C(=O)OC)cc4)cc3)[nH]c2n(CCC)c1=O` are 57 and 92.
Taken in the same sequence, the figures for `CCCn1c(=O)c2nc(-c3ccc(OCC(=O)Nc4ccc(Br)cc4)cc3)[nH]c2n(CCC)c1=O` were 31 and 980.
`CCCn1c(=O)c2[nH]c(-c3ccc(OCC(=O)Nc4ccc(C(=O)O)cc4)cc3)nc2n(CCC)c1=O`: the figures for the inhibitory constant (Ki) in assay [7], in [8] and in assay [9] were above 5000 nM, 39 nM and 161 nM, respectively.
For `CCCn1c(=O)c2nc(-c3ccc(OCC(=O)Nc4ccc(C(F)(F)F)cc4)cc3)[nH]c2n(CCC)c1=O`, the values for the Ratio in assay [2] and in assay [3] were 29 and 100, respectively.
On to `CC(=O)c1ccccc1NC(=O)/C=C/c1ccc(-c2nc3c(=O)n(Cc4ccccc4)c(=O)n(Cc4ccccc4)c3[nH]2)cc1`, for which the Displacement in assay [10] and in assay [11] was below 10% each time.
For `CC(=O)c1ccccc1NC(=O)/C=C/c1ccc(-c2nc3c(=O)n(CC4CCCCC4)c(=O)n(CC4CCCCC4)c3[nH]2)cc1`, the Displacement in assay [10], in [11] and in assay [12] was below 10% in each case.
In the case of `CCCn1c(=O)c2[nH]c(-c3ccc(OCC(=O)Nc4ccc(C(N)=O)cc4)cc3)nc2n(CCC)c1=O`, the inhibitory constant (Ki) amounted to 39 nM in [8] and 161 nM in assay [9].
For `CCCCn1c(=O)c2[nH]c(-c3ccc(OCC(=O)O)cc3)nc2n(CCCC)c1=O`, the Ki in assay [13] was 27500 nM.
As for `O=C(O)COc1ccc(-c2nc3c(=O)n(Cc4ccccc4)c(=O)n(Cc4ccccc4)c3[nH]2)cc1`, the inhibition in assay [6] was found to be 25%.
On to `C=CCn1c(=O)c2nc(-c3ccc(OCC(=O)O)cc3)[nH]c2n(CC=C)c1=O`, for which the Ratio in [2] was determined as 12; in [3] it was 5.8.
As to `CCn1c(=O)c2nc(-c3ccc(OCC(=O)Nc4ccc(C)cc4)cc3)[nH]c2n(CC)c1=O`, the Displacement in assay [14] is below 10%.
`CCCn1c(=O)c2nc(-c3ccc(OCC(=O)Nc4ccc(I)cc4)cc3)[nH]c2n(CCC)c1=O`: the Ratio was 140 in [2] and 600 in [3].
Taken in the same sequence, the figures for `CCCn1c(=O)c2nc(-c3ccc(OCC(=O)Nc4ccc([N+](=O)[O-])cc4)cc3)[nH]c2n(CCC)c1=O` were 38 and 91.
For `CC(=O)c1ccccc1NC(=O)COc1ccc(-c2nc3c(=O)n(Cc4ccccc4)c(=O)n(Cc4ccccc4)c3[nH]2)cc1`, the Displacement in assay [10], in [15] and in [11] was below 10% in each case.
As to `CCCn1c(=O)c2nc(-c3ccc(OCC(=O)NN4C(=O)C(C)=C(C)C4=O)cc3)[nH]c2n(CCC)c1=O`, the Ratio in assay [2] was 110; in [3], 25.
Consider `CCCn1c(=O)c2nc(-c3ccc(/C=C/C(=O)O)cc3)[nH]c2n(CCC)c1=O`, for which the Ki in [7] worked out at 30 nM; in assay [4] it was 60 nM.
`CCCn1c(=O)c2nc(-c3ccc(OCC(=O)Nc4ccc(C(C)=O)cc4)cc3)[nH]c2n(CCC)c1=O`: the Ratio came to 110 in [2] and 170 in [3].
In the same order, the values of `CCCCn1c(=O)c2nc(-c3ccc(OCC(=O)O)cc3)[nH]c2n(CCCC)c1=O` are 3.1 and 1.9.
In the same order, the values of `CCCn1c(=O)c2nc(-c3ccc(OCC(=O)Nc4ccccc4C(C)=O)cc3)[nH]c2n(CCC)c1=O` are 120 and 23.
In the same order, the values of `CCCn1c(=O)c2nc(-c3ccc(OCC(=O)Nc4ccc(F)cc4)cc3)[nH]c2n(CCC)c1=O` are 8.1 and 176.
The compound `CCCn1c(=O)c2[nH]c(-c3ccc(OCC(=O)Nc4ccc(F)cc4)cc3)nc2n(CCC)c1=O` came in with a Ki in [5] of 272 nM.
For the compound `CCCn1c(=O)c2nc(-c3ccc(OCC(=O)Nc4ccccc4)cc3)[nH]c2n(CCC)c1=O`, the figures for the Ratio in [2] and in assay [3] were 27 and 93, respectively.

As usually defined, the Ki is a dissociation constant, usually derived from enzyme kinetics or from competition with a known ligand. For orientation: inhibition means the drop in the measured response relative to a control, in per cent. Lower therefore signals a response near the control.
